Measured values taken from publication PMC4116524, “A virtual screen identified C96 as a novel inhibitor of phosphatidylinositol 3-kinase that displays potent preclinical activity against multiple myeloma in vitro and in vivo” (Oncotarget, 2014).

What was measured:
[1] = tested on: MM cell; design: method as in PMID 24013662; details: cited from earlier work
[2] = tested on: MM cell; design: method as in PMID 20505158; details: cited from earlier work
[3] = tested on: PI3Kγ and δ; design: method as in PMID 20505158; details: read-out: IC50s in inhibiting PI3K activity; cited from earlier work
[4] = tested on: AKT phosphorylation in LP1 and JJN3 cells; assay: IGF-1-stimulated AKT phosphorylation, immunoblotting (Figure 3A); format: cell-based; details: 100 μM, 2 hrs, IGF-1 15 min
Protocol: To elucidate this specificity, we first evaluated its effects on IGF-1R because IGF-1R as a receptor tyrosine kinase activates PI3K in the presence of IGF-1. To exclude the potential effects of C96 on IGF-1 signaling, LP1 and JJN3 cells were starved overnight followed by C96 or S14161 treatment for 2 hrs, and IGF-1 stimulation for 15 min. As expected, IGF-1 triggered AKT phosphorylation but it was suppressed by both C96 and the proven PI3K inhibitor S14161 without affecting total AKT expression (Figure 3A). […] Next, we evaluated other kinases including non-receptor kinase c-Src and a PI3K parallel kinase ERK which transduces external cellular signals. Both LP1 and JJN3 cells were treated with C96 at increasing concentrations that inhibited AKT and mTOR activation (Figure 2C).
Figure 3 C96 inhibits AKT but not IGF-1R, ERK or c-Src kinase activation (A) LP1 and JJN3 cells were starved overnight, then treated with 100 (μM of C96 or S14161 for 2 hrs, followed by IGF-1 (100 ng/mL) for 15 min. After incubation, cells were harvested and the expression of p-AKT, p-IGF-1R, total AKT (T-AKT), and IGF-1R proteins were detected by immunoblotting. (B) LP1 and JJN3 were treated with C96 at indicated concentrations for 24 hrs followed by immunoblotting assay for the expression of p-Src, c-Src, p-ERK, and ERK. GAPDH was used as a loading control. […]

SMILES: COc1c(OCCCN2CCOCC2)ccc2c1N=C(NC(=O)c1cnc(N)nc1)N1CCN=C21 [BAY80-6946]
- concentration required to inhibit MM cell proliferation [1]: more than 1000 nM

SMILES: CC[C@H](Nc1ncnc2[nH]cnc12)c1nc2cccc(F)c2c(=O)n1-c1ccccc1 [CAL-101]
- concentration needed to induce MM cell death [2]: more than 10 μM
- IC50 [3]: ~2.5 nM

SMILES: CCOc1cccc2c1OC(c1ccc(F)cc1)C([N+](=O)[O-])=C2 (stereo not shown) [S14161, reference compound]
- AKT phosphorylation triggered by IGF-1 [4]: suppressed
